Results on two compounds are retold here after publication PMC5454391, “Improving 10-deacetylbaccatin III-10-β-O-acetyltransferase catalytic fitness for Taxol production” (Nature Communications, 2017).

Common to all, as to type: biochemical
In experiment [1] the target is T1, DBAT of T. canadensis (Taxus canadensis, UniProt B5KRF5).
T1 sequence (B5KRF5 1-440): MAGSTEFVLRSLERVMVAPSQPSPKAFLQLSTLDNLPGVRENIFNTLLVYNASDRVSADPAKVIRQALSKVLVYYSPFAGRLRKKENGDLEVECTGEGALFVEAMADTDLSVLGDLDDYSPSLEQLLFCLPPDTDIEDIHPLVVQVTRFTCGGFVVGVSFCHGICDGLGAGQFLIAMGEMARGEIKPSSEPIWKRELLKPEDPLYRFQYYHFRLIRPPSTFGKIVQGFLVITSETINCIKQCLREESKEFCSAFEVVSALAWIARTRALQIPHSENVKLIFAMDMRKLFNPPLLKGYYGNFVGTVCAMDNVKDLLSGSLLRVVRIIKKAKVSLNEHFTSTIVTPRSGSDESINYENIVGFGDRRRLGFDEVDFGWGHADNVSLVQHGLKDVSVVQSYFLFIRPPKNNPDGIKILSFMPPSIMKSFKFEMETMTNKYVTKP
Nature of the experiment: HPLC of Taxol formed. Conditions: 500 μM acetyl-CoA, 50 mM sodium acetate pH 5.5, […], 180 min.

For the next experiment, the target named is T2, DBAT of T. brevifolia (Taxus brevifolia, UniProt B5KRG4).
T2 sequence (B5KRG4 1-440): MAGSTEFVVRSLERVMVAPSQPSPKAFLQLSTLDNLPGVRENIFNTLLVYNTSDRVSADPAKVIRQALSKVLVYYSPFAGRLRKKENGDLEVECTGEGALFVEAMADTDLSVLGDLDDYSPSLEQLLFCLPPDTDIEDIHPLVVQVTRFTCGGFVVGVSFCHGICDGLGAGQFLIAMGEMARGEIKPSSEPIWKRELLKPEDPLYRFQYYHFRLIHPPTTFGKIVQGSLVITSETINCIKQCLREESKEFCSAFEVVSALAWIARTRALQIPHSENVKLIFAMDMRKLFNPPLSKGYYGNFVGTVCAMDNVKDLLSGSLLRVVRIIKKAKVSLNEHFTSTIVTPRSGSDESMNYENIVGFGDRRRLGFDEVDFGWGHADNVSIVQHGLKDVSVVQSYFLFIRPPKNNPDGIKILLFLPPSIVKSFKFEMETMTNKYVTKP
Nature of the experiment: HPLC of Taxol formed. Conditions: 500 μM acetyl-CoA, 50 mM sodium acetate pH 5.5, […], 180 min.

The target of experiment [2] is T3, DBAT of T. x media (Taxus x media, UniProt Q6SQJ5).
T3 sequence (Q6SQJ5 1-440): T1 sequence (B5KRF5 1-440) with L9V, A58V, R213Q, R216C, F228S, L294S, M422V
Briefly: HPLC of Taxol formed. Conditions: 500 μM acetyl-CoA, 50 mM sodium acetate pH 5.5, […], 180 min.

The target in experiment [3] is T4, DBAT of T. wallichiana var. (Taxus mairei, UniProt B5KRG1).
T4 sequence (B5KRG1 1-440): T1 sequence (B5KRF5 1-440) with L9V, L123H, V158M, F228S, L294S, I352V, M422V
Nature of the experiment: HPLC of Taxol formed. The following applies: 500 μM acetyl-CoA, 50 mM sodium acetate pH 5.5, […], 180 min.

For experiment [4], the target named is T3, DBAT of T. x media. Nature of the experiment: HPLC of baccatin III formed. Conditions: 500 μM acetyl-CoA, 50 mM sodium acetate pH 5.5, 40 °C, 20 min.
The target of experiment [5] is T1, DBAT of T. canadensis. Briefly: HPLC of baccatin III formed. The following applies: 500 μM acetyl-CoA, 50 mM sodium acetate pH 5.5, 40 °C, 20 min.
The target of experiment [6] is T4, DBAT of T. wallichiana var. Nature of the experiment: HPLC of baccatin III formed. The following applies: 500 μM acetyl-CoA, 50 mM sodium acetate pH 5.5, 40 °C, 20 min.

Positions count from the first letter of the chain named.

In the case of `CC(=O)O[C@@]12CO[C@@H]1C[C@H](O)[C@@]1(C)C(=O)[C@H](O)C3=C(C)[C@@H](OC(=O)[C@H](O)[C@@H](NC(=O)c4ccccc4)c4ccccc4)C[C@@](O)([C@@H](OC(=O)c4ccccc4)[C@H]21)C3(C)C` [compound 2, DT], the “HPLC of Taxol formed” value at DBAT of T. canadensis [1] was “all other recombinant enzymes exhibited acetylation activity against 10-DAB and DT”; on DBAT of T. brevifolia, “the DBATs of T. cuspidata and T. brevifolia showed the highest specific activities”; on DBAT of T. x media [2], “all other recombinant enzymes exhibited acetylation activity against 10-DAB and DT”; in experiment [3], “all other recombinant enzymes exhibited acetylation activity against 10-DAB and DT”.

As for `CC(=O)O[C@@]12CO[C@@H]1C[C@H](O)[C@@]1(C)C(=O)[C@H](O)C3=C(C)[C@@H](O)C[C@@](O)([C@@H](OC(=O)c4ccccc4)[C@H]21)C3(C)C` [compound 1, 10-DAB], the “HPLC of baccatin III formed” value at DBAT of T. x media [4] was “T. x media origins showed similar conversion rates for 10-DAB”; at DBAT of T. canadensis [5], “all other recombinant enzymes exhibited acetylation activity against 10-DAB and DT”; in experiment [6] it was “all other recombinant enzymes exhibited acetylation activity against 10-DAB and DT”.
